# Laboratory results from patent US20250041311A1, “Compound For Treating or Preventing Vimentin-Mediated Diseases” (Aluda Pharmaceuticals, Inc., priority 2021, published 2025).
# “Also recorded” adds a separate entry of the source.
# Tests used:
# [1] = test system: Huh7-NC12 cells; experiment: PrestoBlue cell viability of liver cancer cells; conditions: for cytotoxicity: 48 h, highest concentration 10,000 nM, high concentrations 3,160 and 10,000 nM; for survival rate: after two days of treatment; for toxicity to Huh7-NC12 cells: high concentrations (>3160 nM)
# [2] = test system: Huh7-NC12 cells; experiment: Exosome release from liver cancer cells (luciferase exosome reporter, ExoHTP platform); assay type: cell-based; conditions: 48 h, luciferase activity of exosomes purified from supernatant
# [3] = molecular target: T1, vimentin (Homo sapiens, UniProt P08670); experiment: Fluorescence recovery after photobleaching (FRAP) of GFP-vimentin in U87 cells; assay type: cell-based; parameters: expressed in transfected cells; host or cells: U87 human glioma cells, transient transfection; conditions: cells treated with C50 for 24 h, vs DMSO
# Procedure: (§1) Cell culture: Human cancer cell lines were obtained from the Institute of Cell Research, Chinese Academy of Sciences or ATCC. Cells were cultured in an incubator with 5% CO2 in RMPI1640 supplemented with 10% fetal bovine serum, 2 mM L-glutamine and 1× penicillin-streptomycin (100 IU/ml-100 μg/ml).
# Fluorescence recovery after photobleaching (FRAP): Cells were cultured on 4-well coverslips and transiently transfected with pEGFP-Vim expression vector using Lipofectamine 2000 (Invitrogen) following the manufacturer's instructions. Twenty-four h after transfection, cells were treated with DMSO or C50 for 24 h. FRAP experiments were performed using a confocal microscope system (Fluoview 1,000; Olympus). For photobleaching, the region of interest (ROI) was irradiated with 60% laser power (488 nm) for 2 s. Images were taken every 30 s for 5 min to monitor fluorescence recovery. Fluorescence intensities were corrected for sample background at each time point. After data collection, the fluorescence intensity of ROI was extracted by ImageJ software.
# Target sequence in this assay (P08670 whole entry, species assumed): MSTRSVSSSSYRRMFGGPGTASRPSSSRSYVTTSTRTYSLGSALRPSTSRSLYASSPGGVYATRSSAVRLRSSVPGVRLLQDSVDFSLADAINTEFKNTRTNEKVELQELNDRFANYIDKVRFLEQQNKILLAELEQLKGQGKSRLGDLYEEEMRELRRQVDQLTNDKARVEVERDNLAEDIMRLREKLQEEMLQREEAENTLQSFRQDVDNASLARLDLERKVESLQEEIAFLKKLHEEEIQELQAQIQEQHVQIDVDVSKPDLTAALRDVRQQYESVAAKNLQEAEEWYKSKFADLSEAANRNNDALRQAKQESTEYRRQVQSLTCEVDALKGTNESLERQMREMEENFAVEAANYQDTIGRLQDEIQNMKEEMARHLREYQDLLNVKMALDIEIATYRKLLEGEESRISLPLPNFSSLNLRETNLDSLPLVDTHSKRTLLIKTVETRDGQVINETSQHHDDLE
# [4] = molecular target: T2, GFAP (Homo sapiens, UniProt P14136); experiment: Immunofluorescence microscopy of the GFAP network (specificity control); assay type: cell-based; conditions: U87 glioma cells treated with C50
# T2 construct: endogenous in cells; host or cells: U87 human glioma cells
# T2 sequence (P14136 whole entry): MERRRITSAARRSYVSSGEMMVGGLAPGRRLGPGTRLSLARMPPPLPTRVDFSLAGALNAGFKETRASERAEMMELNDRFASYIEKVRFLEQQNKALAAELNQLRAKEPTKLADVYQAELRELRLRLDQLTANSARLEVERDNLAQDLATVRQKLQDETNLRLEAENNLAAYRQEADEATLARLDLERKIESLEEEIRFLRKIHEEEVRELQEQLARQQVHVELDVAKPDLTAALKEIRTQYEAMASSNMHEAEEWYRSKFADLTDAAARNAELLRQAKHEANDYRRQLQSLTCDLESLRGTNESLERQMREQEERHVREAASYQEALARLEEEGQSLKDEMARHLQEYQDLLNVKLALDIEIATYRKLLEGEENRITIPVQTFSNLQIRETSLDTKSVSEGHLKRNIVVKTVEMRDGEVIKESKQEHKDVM
# [5] = molecular target: T1, vimentin; experiment: Immunofluorescence microscopy of the vimentin intermediate filament network; assay type: cell-based; parameters: react with mouse anti-VIM antibody (Sigma, 1:200) at room temperature; endogenous in cells; host or cells: U87 human glioma cells; conditions: U87 cells treated with C50 for 24 h, confocal immunofluorescence
# Procedure: as §1
# Target sequence in this assay (P08670 2-466 limits assumed): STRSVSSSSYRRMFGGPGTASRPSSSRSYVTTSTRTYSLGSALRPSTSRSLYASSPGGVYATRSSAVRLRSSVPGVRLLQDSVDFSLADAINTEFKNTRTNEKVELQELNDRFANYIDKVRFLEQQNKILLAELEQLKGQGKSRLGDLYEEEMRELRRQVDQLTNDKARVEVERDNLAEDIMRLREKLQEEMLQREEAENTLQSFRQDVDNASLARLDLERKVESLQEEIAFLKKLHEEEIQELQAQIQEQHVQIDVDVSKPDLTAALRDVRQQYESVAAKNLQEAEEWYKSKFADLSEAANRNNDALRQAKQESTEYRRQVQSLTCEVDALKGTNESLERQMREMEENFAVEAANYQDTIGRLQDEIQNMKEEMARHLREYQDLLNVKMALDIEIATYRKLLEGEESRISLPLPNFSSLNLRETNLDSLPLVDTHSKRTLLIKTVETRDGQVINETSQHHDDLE
# Immunofluorescence microscopy: Cells were cultured in 4-well coverslips, treated with DMSO or C50 for 24 h, fixed with 2% paraformaldehyde at 37° C. for 15 minutes, permeabilized in 0.2% Triton X-100 PBS at room temperature Wash for 15 min, wash 3 times with 0.05% Triton X-100 TBS, block with 10% normal goat serum in 0.05% Triton X-100 TBS, then react with mouse anti-VIM antibody (Sigma, 1:200) at room temperature Incubate for 3 h. Cells were washed 3 times with 0.05% Triton X-100 in PBS, and then incubated with Cy TM3-conjugated anti-mouse IgG antibody (Jackson, 1:300) for 1 h at room temperature. Nuclei were stained with DAPI for 5-10 min. Immunofluorescence was observed using a FV1000 (Olympus) confocal microscope.
# [6] = test system: EAE mice; experiment: MOG-induced experimental autoimmune encephalomyelitis (EAE) mouse model; assay type: in vivo; conditions: FTY720 1 mg/kg, oral once a day, vs vehicle
SMILES,cytotoxicity [1],survival rate [1],toxicity to Huh7-NC12 cells [1],inhibition of exosome release [2],also measured
O=C(Nc1ccc(F)cc1)Nc1ccc(Nc2nc(/C=C/c3ccc(Cl)cc3)nc(N3CCOCC3)n2)cc1 [Compound C45],not cytotoxic,about 90%,not toxic,stronger inhibitory effects than GW4869; also recorded: effectively inhibit the release of exosomes,–
O=C(Nc1ccc(Cl)cc1)Nc1ccc(Nc2nc(/C=C/c3ccccc3)nc(N3CCOCC3)n2)cc1 [Compound C50],–,–,–,–,time required to recover fluorescence in the photobleached region [3]: significantly delayed; structural changes of GFAP intermediate filament protein [4]: no structural changes; reorganization of the vimentin network [5]: significant reorganization of the vimentin network
O=C(Nc1ccc(Nc2nc(/C=C/c3ccccc3)nc(N3CCOCC3)n2)cc1)Nc1ccnc(Cl)c1 [Compound C52M],cytotoxic,–,cytotoxic,effectively inhibit the release of exosomes,–
O=C(Nc1ccc(Nc2nc(/C=C/c3ccccc3)nc(N3CCOCC3)n2)cc1)Nc1ccc(C(=O)O)cc1 [Compound C69A],not cytotoxic,about 90%,not toxic,stronger inhibitory effects than GW4869; also recorded: effectively inhibit the release of exosomes,–
CN1CCN(C(=O)c2ccc(NC(=O)Nc3ccc(Nc4nc(/C=C/c5ccccc5)nc(N5CCOCC5)n4)cc3)cc2)CC1 [Compound C69B],cytotoxic,–,cytotoxic,effectively inhibit the release of exosomes,–
"CCCCCCCCc1ccc(CCC(N)(CO)CO)cc1 [FTY720, reference compound]",–,–,–,–,animal weight loss [6]: reduced; clinical disease scores [6]: improved
"O=C(/C=C/c1ccc(/C=C/C(=O)Nc2ccc(C3=NCCN3)cc2)cc1)Nc1ccc(C2=NCCN2)cc1 [GW4869, reference compound]",not cytotoxic,about 90%,–,–,–
